Legend:
[1] = test system: SU-DHL-6-epst; assay: Combination study of Compound 1 or CAL-101 and a second therapeutic agent (Synergy Score, CI50); type: cell-based
[2] = test system: OCI-Ly7; assay: Combination study, ATPLite 72 h, dose matrix (Synergy Score, CI50)
[3] = test system: SU-DHL-4-epst; assay: as above
[4] = test system: DOHH-2; assay: as above
[5] = test system: Farage; assay: as above; settings: Farage
[6] = test system: SU-DHL-10-epst; assay: as above
[7] = test system: RL; assay: as above
Procedure: Cells are thawed from a liquid nitrogen preserved state. Once cells have been expanded and divide at their expected doubling times, screening begins. Cells are seeded in growth media in either black 1536-well or 384-well tissue culture treated plates. Cells are then equilibrated in assay plates via centrifugation and placed in incubators attached to the Dosing Modules at 37° C. for 24 hours before treatment. […] These Tzero (To) plates are read using ultra-sensitive luminescence on Envision plate readers (Perkin Elmer). Treated assay plates are incubated with compound for 72 hours. After 72 hours, plates are developed for endpoint analysis using ATPLite. All data points are collected via automated processes, quality controlled and analyzed using Zalicus software.
where T is treated cell count and V is untreated (vehicle) cell count (at 72 hours). I ranges from 0% (when T=V) to 100% (when T=0). […] The measure of effect in the experiment can be the inhibition of cellular response relative to the untreated level (vehicle alone). […] The inhibition ranges from 0% at the untreated level to 100% when T=0. Inhibition levels are negative for agents that actually increase levels. Other effect measures, such as an activity ratio r=T/V may be more appropriate for some assays. When activity ratios (e.g, fold increase over stimulated control) are being used, the effect can be measured using an induction 1=ln(T/V). With this definition, all effect expressions are the same as for inhibition.
Growth Inhibition (GI) is used as a measure of cell viability. […] A GI reading of 100% represents complete growth inhibition—T72 compound-treated and T0 vehicle signals are matched. […] A GI reading of 200% represents complete death of all cells in the culture well. Compounds reaching an activity plateau of GI 200% are considered cytotoxic. GI is calculated by applying the following test and equation:
Combination analysis data were collected in a 6×6 dose matrix. Synergy is calculated by comparing a combination's response to those of its single compound, against the drug-with-itself dose-additive reference model. Deviations from dose additivity may be assessed visually on an isobologram or numerically with a Combination Index (CI). […] Additive effect is CI=1.0. […] Antagonistic effect is CI>1.0.
To measure combination effects in excess of Loewe additivity, a scalar measure to characterize the strength of synergistic interaction termed the Synergy Score is devised. The Synergy Score is calculated as:
The fractional inhibition for each component agent and combination point in the matrix is calculated relative to the median of all vehicle-treated control wells. The Synergy Score equation integrates the experimentally-observed activity volume at each point in the matrix in excess of a model surface numerically derived from the activity of the component agents using the Loewe model for additivity. Additional terms in the Synergy Score equation (above) are used to normalize for various dilution factors used for individual agents and to allow for comparison of synergy scores across an entire experiment. The inclusion of positive inhibition gating or an Idata multiplier removes noise near the zero effect level, and biases results for synergistic interactions at that occur at high activity levels.
Loewe Volume (Loewe Vol) is used to assess the overall magnitude of the combination interaction in excess of the Loewe additivity model. Loewe Volume is particularly useful when distinguishing synergistic increases in a phenotypic activity (positive Loewe Volume) versus synergistic antagonisms (negative Loewe Volume). […] This model defines additivity as a non-synergistic combination interaction where the combination dose matrix surface should be indistinguishable from either drug crossed with itself.

[8] = test system: KARPAS-422; assay: as above
[9] = test system: WSU-NHL; assay: as above

SMILES: CC[C@H](Nc1ncnc2[nH]cnc12)c1nc2cccc(F)c2c(=O)n1-c1ccccc1 [CAL-101]
- CI50 growth inhibition ([1]; combination with Dexamethasone): T (T=0.5 to <0.7)
- CI50 inhibition ([1]; combination with Dexamethasone): S (S=0.01 to <0.5)
- Synergy Score growth inhibition ([1]; combination with Dexamethasone): A2 (A2=1 to <3)
- Synergy Score inhibition ([1]; combination with Dexamethasone): A2 (A2=1 to <3)
- CI50 growth inhibition ([1]; combination with LEE011): S (S=0.01 to <0.5)
- CI50 inhibition ([1]; combination with LEE011): S (S=0.01 to <0.5)
- Synergy Score growth inhibition ([1]; combination with LEE011): A2 (A2=1 to <3)
- Synergy Score inhibition ([1]; combination with LEE011): A2 (A2=1 to <3)
- CI50 growth inhibition ([1]; combination with PCI-32765): T (T=0.5 to <0.7)
- CI50 inhibition ([1]; combination with PCI-32765): T (T=0.5 to <0.7)
- Synergy Score growth inhibition ([1]; combination with PCI-32765): A2 (A2=1 to <3)
- Synergy Score inhibition ([1]; combination with PCI-32765): A2 (A2=1 to <3)
- CI50 growth inhibition ([1]; combination with PD-0332991): T (T=0.5 to <0.7)
- CI50 inhibition ([1]; combination with PD-0332991): T (T=0.5 to <0.7)
- Synergy Score growth inhibition ([1]; combination with PD-0332991): A2 (A2=1 to <3)
- Synergy Score inhibition ([1]; combination with PD-0332991): A2 (A2=1 to <3)
- CI50 growth inhibition ([2]; combination with Dexamethasone): S (S=0.01 to <0.5)
- CI50 inhibition ([2]; combination with Dexamethasone): T (T=0.5 to <0.7)
- Synergy Score growth inhibition ([2]; combination with Dexamethasone): A3 (A3=>3)
- Synergy Score inhibition ([2]; combination with Dexamethasone): A2 (A2=1 to <3)
- CI50 growth inhibition ([2]; combination with LEE011): W (W=≥1)
- Synergy Score growth inhibition ([2]; combination with LEE011): A1 (A1=0.0001 to <1)
- Synergy Score inhibition ([2]; combination with LEE011): A1 (A1=0.0001 to <1)
- CI50 growth inhibition ([2]; combination with PCI-32765): W (W=≥1)
- Synergy Score growth inhibition ([2]; combination with PCI-32765): A1 (A1=0.0001 to <1)
- Synergy Score inhibition ([2]; combination with PCI-32765): A1 (A1=0.0001 to <1)
- CI50 growth inhibition ([2]; combination with PD-0332991): S (S=0.01 to <0.5)
- CI50 inhibition ([2]; combination with PD-0332991): T (T=0.5 to <0.7)
- Synergy Score growth inhibition ([2]; combination with PD-0332991): A2 (A2=1 to <3)
- Synergy Score inhibition ([2]; combination with PD-0332991): A2 (A2=1 to <3)
- CI50 growth inhibition ([3]; combination with Dexamethasone): S (S=0.01 to <0.5)
- CI50 inhibition ([3]; combination with Dexamethasone): S (S=0.01 to <0.5)
- Synergy Score growth inhibition ([3]; combination with Dexamethasone): A3 (A3=>3)
- Synergy Score inhibition ([3]; combination with Dexamethasone): A3 (A3=>3)
- CI50 growth inhibition ([3]; combination with LEE011): S (S=0.01 to <0.5)
- CI50 inhibition ([3]; combination with LEE011): T (T=0.5 to <0.7)
- Synergy Score growth inhibition ([3]; combination with LEE011): A2 (A2=1 to <3)
- Synergy Score inhibition ([3]; combination with LEE011): A2 (A2=1 to <3)
- CI50 growth inhibition ([3]; combination with PCI-32765): S (S=0.01 to <0.5)
- CI50 inhibition ([3]; combination with PCI-32765): S (S=0.01 to <0.5)
- Synergy Score growth inhibition ([3]; combination with PCI-32765): A3 (A3=>3)
- Synergy Score inhibition ([3]; combination with PCI-32765): A2 (A2=1 to <3)
- CI50 growth inhibition ([3]; combination with PD-0332991): S (S=0.01 to <0.5)
- CI50 inhibition ([3]; combination with PD-0332991): S (S=0.01 to <0.5)
- Synergy Score growth inhibition ([3]; combination with PD-0332991): A3 (A3=>3)
- Synergy Score inhibition ([3]; combination with PD-0332991): A2 (A2=1 to <3)
- CI50 growth inhibition ([4]; combination with Dexamethasone): T (T=0.5 to <0.7)
- CI50 inhibition ([4]; combination with Dexamethasone): U (U=0.7 to <1)
- Synergy Score growth inhibition ([4]; combination with Dexamethasone): A3 (A3=>3)
- Synergy Score inhibition ([4]; combination with Dexamethasone): A2 (A2=1 to <3)
- CI50 growth inhibition ([4]; combination with LEE011): T (T=0.5 to <0.7)
- CI50 inhibition ([4]; combination with LEE011): T (T=0.5 to <0.7)
- Synergy Score growth inhibition ([4]; combination with LEE011): A3 (A3=>3)
- Synergy Score inhibition ([4]; combination with LEE011): A2 (A2=1 to <3)
- CI50 growth inhibition ([4]; combination with PCI-32765): S (S=0.01 to <0.5)
- CI50 inhibition ([4]; combination with PCI-32765): S (S=0.01 to <0.5)
- Synergy Score growth inhibition ([4]; combination with PCI-32765): A3 (A3=>3)
- Synergy Score inhibition ([4]; combination with PCI-32765): A3 (A3=>3)
- CI50 growth inhibition ([4]; combination with PD-0332991): T (T=0.5 to <0.7)
- CI50 inhibition ([4]; combination with PD-0332991): T (T=0.5 to <0.7)
- Synergy Score growth inhibition ([4]; combination with PD-0332991): A3 (A3=>3)
- Synergy Score inhibition ([4]; combination with PD-0332991): A2 (A2=1 to <3)
- CI50 growth inhibition ([5]; combination with Dexamethasone): U (U=0.7 to <1)
- CI50 inhibition ([5]; combination with Dexamethasone): S (S=0.01 to <0.5)
- Synergy Score growth inhibition ([5]; combination with Dexamethasone): A3 (A3=>3)
- Synergy Score inhibition ([5]; combination with Dexamethasone): A3 (A3=>3)
- CI50 growth inhibition ([5]; combination with LEE011): W (W=≥1)
- CI50 inhibition ([5]; combination with LEE011): W (W=≥1)
- Synergy Score growth inhibition ([5]; combination with LEE011): A1 (A1=0.0001 to <1)
- Synergy Score inhibition ([5]; combination with LEE011): A1 (A1=0.0001 to <1)
- CI50 growth inhibition ([5]; combination with PCI-32765): S (S=0.01 to <0.5)
- CI50 inhibition ([5]; combination with PCI-32765): S (S=0.01 to <0.5)
- Synergy Score growth inhibition ([5]; combination with PCI-32765): A3 (A3=>3)
- Synergy Score inhibition ([5]; combination with PCI-32765): A3 (A3=>3)
- CI50 growth inhibition ([5]; combination with PD-0332991): T (T=0.5 to <0.7)
- CI50 inhibition ([5]; combination with PD-0332991): T (T=0.5 to <0.7)
- Synergy Score growth inhibition ([5]; combination with PD-0332991): A2 (A2=1 to <3)
- Synergy Score inhibition ([5]; combination with PD-0332991): A1 (A1=0.0001 to <1)
- CI50 growth inhibition ([6]; combination with Dexamethasone): S (S=0.01 to <0.5)
- CI50 inhibition ([6]; combination with Dexamethasone): S (S=0.01 to <0.5)
- Synergy Score growth inhibition ([6]; combination with Dexamethasone): A3 (A3=>3)
- Synergy Score inhibition ([6]; combination with Dexamethasone): A2 (A2=1 to <3)
- CI50 growth inhibition ([6]; combination with LEE011): T (T=0.5 to <0.7)
- CI50 inhibition ([6]; combination with LEE011): T (T=0.5 to <0.7)
- Synergy Score growth inhibition ([6]; combination with LEE011): A3 (A3=>3)
- Synergy Score inhibition ([6]; combination with LEE011): A2 (A2=1 to <3)
- CI50 growth inhibition ([6]; combination with PCI-32765): U (U=0.7 to <1)
- CI50 inhibition ([6]; combination with PCI-32765): U (U=0.7 to <1)
- Synergy Score growth inhibition ([6]; combination with PCI-32765): A2 (A2=1 to <3)
- Synergy Score inhibition ([6]; combination with PCI-32765): A2 (A2=1 to <3)
- CI50 growth inhibition ([6]; combination with PD-0332991): S (S=0.01 to <0.5)
- CI50 inhibition ([6]; combination with PD-0332991): S (S=0.01 to <0.5)
- Synergy Score growth inhibition ([6]; combination with PD-0332991): A3 (A3=>3)
- Synergy Score inhibition ([6]; combination with PD-0332991): A3 (A3=>3)
- CI50 growth inhibition ([7]; combination with Dexamethasone): T (T=0.5 to <0.7)
- CI50 inhibition ([7]; combination with Dexamethasone): T (T=0.5 to <0.7)
- Synergy Score growth inhibition ([7]; combination with Dexamethasone): A3 (A3=>3)
- Synergy Score inhibition ([7]; combination with Dexamethasone): A2 (A2=1 to <3)
- CI50 growth inhibition ([7]; combination with LEE011): T (T=0.5 to <0.7)
- CI50 inhibition ([7]; combination with LEE011): U (U=0.7 to <1)
- Synergy Score growth inhibition ([7]; combination with LEE011): A2 (A2=1 to <3)
- Synergy Score inhibition ([7]; combination with LEE011): A1 (A1=0.0001 to <1)
- CI50 growth inhibition ([7]; combination with PCI-32765): T (T=0.5 to <0.7)
- CI50 inhibition ([7]; combination with PCI-32765): S (S=0.01 to <0.5)
- Synergy Score growth inhibition ([7]; combination with PCI-32765): A2 (A2=1 to <3)
- Synergy Score inhibition ([7]; combination with PCI-32765): A2 (A2=1 to <3)
- CI50 growth inhibition ([7]; combination with PD-0332991): S (S=0.01 to <0.5)
- CI50 inhibition ([7]; combination with PD-0332991): S (S=0.01 to <0.5)
- Synergy Score growth inhibition ([7]; combination with PD-0332991): A2 (A2=1 to <3)
- Synergy Score inhibition ([7]; combination with PD-0332991): A2 (A2=1 to <3)
- CI50 growth inhibition ([8]; combination with Dexamethasone): U (U=0.7 to <1)
- CI50 inhibition ([8]; combination with Dexamethasone): T (T=0.5 to <0.7)
- Synergy Score growth inhibition ([8]; combination with Dexamethasone): A3 (A3=>3)
- Synergy Score inhibition ([8]; combination with Dexamethasone): A2 (A2=1 to <3)
- CI50 growth inhibition ([8]; combination with LEE011): T (T=0.5 to <0.7)
- CI50 inhibition ([8]; combination with LEE011): T (T=0.5 to <0.7)
- Synergy Score growth inhibition ([8]; combination with LEE011): A2 (A2=1 to <3)
- Synergy Score inhibition ([8]; combination with LEE011): A2 (A2=1 to <3)
- CI50 growth inhibition ([8]; combination with PCI-32765): S (S=0.01 to <0.5)
- CI50 inhibition ([8]; combination with PCI-32765): S (S=0.01 to <0.5)
- Synergy Score growth inhibition ([8]; combination with PCI-32765): A3 (A3=>3)
- Synergy Score inhibition ([8]; combination with PCI-32765): A2 (A2=1 to <3)
- CI50 growth inhibition ([8]; combination with PD-0332991): S (S=0.01 to <0.5)
- CI50 inhibition ([8]; combination with PD-0332991): S (S=0.01 to <0.5)
- Synergy Score growth inhibition ([8]; combination with PD-0332991): A3 (A3=>3)
- Synergy Score inhibition ([8]; combination with PD-0332991): A2 (A2=1 to <3)
- CI50 growth inhibition ([9]; combination with Dexamethasone): T (T=0.5 to <0.7)
- CI50 inhibition ([9]; combination with Dexamethasone): T (T=0.5 to <0.7)
- Synergy Score growth inhibition ([9]; combination with Dexamethasone): A3 (A3=>3)
- Synergy Score inhibition ([9]; combination with Dexamethasone): A3 (A3=>3)
- CI50 growth inhibition ([9]; combination with LEE011): T (T=0.5 to <0.7)
- CI50 inhibition ([9]; combination with LEE011): S (S=0.01 to <0.5)
- Synergy Score growth inhibition ([9]; combination with LEE011): A2 (A2=1 to <3)
- Synergy Score inhibition ([9]; combination with LEE011): A2 (A2=1 to <3)
- CI50 growth inhibition ([9]; combination with PCI-32765): S (S=0.01 to <0.5)
- CI50 inhibition ([9]; combination with PCI-32765): S (S=0.01 to <0.5)
- Synergy Score growth inhibition ([9]; combination with PCI-32765): A3 (A3=>3)
- Synergy Score inhibition ([9]; combination with PCI-32765): A3 (A3=>3)
- CI50 growth inhibition ([9]; combination with PD-0332991): S (S=0.01 to <0.5)
- CI50 inhibition ([9]; combination with PD-0332991): S (S=0.01 to <0.5)
- Synergy Score growth inhibition ([9]; combination with PD-0332991): A2 (A2=1 to <3)
- Synergy Score inhibition ([9]; combination with PD-0332991): A2 (A2=1 to <3)

Source: patent US20240325398A1, “COMBINATION THERAPIES” (Infinity Pharmaceuticals, Inc., priority 2014, published 2024)
